Experimental data published in patent US6737383B1, “Herbicidal oxadiazolidines” (priority 1999, dated 2004).

How the values were obtained:
[1] = tested on: giant foxtail; experiment: Test B pre/postemergence giant foxtail; format: in vivo, Setaria faberii
How it was run: (§1)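 Herbicidal effect was estimated by eye on a ten-point control scale after plants spent twelve to sixteen days in a greenhouse following soil or foliar treatment. Foliar sprays targeted plants at one to four leaves; all doses were formulated in a non-phytotoxic solvent with surfactant.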

[2] = tested on: purple nutsedge; experiment: Test B pre/postemergence purple nutsedge; format: in vivo, Cyperus rotundus; details: Postemergence
How it was run: as §1

[3] = tested on: blackgrass; experiment: Test B pre/postemergence blackgrass; format: in vivo, Alopecurus myosuroides
How it was run: as §1

[4] = tested on: smallflower flatsedge; experiment: Test B flood test smallflower flatsedge; format: in vivo, Cyperus difformis
How it was run: (§2)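 Plants were grown to the 2-leaf stage before treatment with test chemical, then held in a greenhouse for twelve to sixteen days. Injury was visually rated against untreated controls on a 0–10 scale, where 0 is no effect and 10 is complete control.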

[5] = tested on: velvetleaf; experiment: Test B pre/postemergence velvetleaf; format: in vivo, Abutilon theophrasti
How it was run: as §1

[6] = tested on: duck salad; experiment: Test B flood test duck salad; format: in vivo, Heteranthera limosa
How it was run: as §2

[7] = tested on: corn; experiment: Test B pre/postemergence corn; format: in vivo, Zea mays
How it was run: as §1

[8] = tested on: bedstraw; experiment: Test B pre/postemergence bedstraw; format: in vivo, Galium aparine
How it was run: as §1

[9] = tested on: sugar beet; experiment: Test B pre/postemergence sugar beet; format: in vivo, Beta vulgaris
How it was run: as §1

[10] = tested on: rape; experiment: Test B pre/postemergence rape; format: in vivo, Brassica napus
How it was run: as §1

[11] = tested on: surinam grass; experiment: Test B pre/postemergence surinam grass; format: in vivo, Brachiaria decumbens
How it was run: as §1

[12] = tested on: crabgrass; experiment: Test B pre/postemergence crabgrass; format: in vivo, Digitaria sanguinalis
How it was run: as §1

[13] = tested on: bamyardgrass; experiment: Test B flood test barnyardgrass; format: in vivo, Echinochloa crus-galli
How it was run: as §2

[14] = tested on: wild oat; experiment: Test B pre/postemergence wild oat; format: in vivo, Avena fatua
How it was run: as §1

[15] = tested on: soybean; experiment: Test B pre/postemergence soybean; format: in vivo, Glycine max
How it was run: as §1

[16] = tested on: wheat; experiment: Test B pre/postemergence wheat; format: in vivo, Triticum aestivum
How it was run: as §1

[17] = tested on: cocklebur; experiment: Test B pre/postemergence cocklebur; format: in vivo, Xanthium strumarium
How it was run: as §1

[18] = tested on: pigweed; experiment: Test B pre/postemergence pigweed; format: in vivo, Amaranthus retroflexus
How it was run: as §1

[19] = tested on: rice; experiment: Test B flood test rice; format: in vivo, Oryza sativa
How it was run: as §2

[20] = tested on: morningglory; experiment: Test B pre/postemergence morningglory; format: in vivo, Ipomoea hederacea
How it was run: as §1

[21] = Preemergence, Rate 62 g/ha, scale of 0 to 10 where 0 is no effect and 10 is complete control
[22] = Preemergence, Rate 250 g/ha, scale of 0 to 10 where 0 is no effect and 10 is complete control
[23] = Preemergence, Rate 500 g/ha, scale of 0 to 10 where 0 is no effect and 10 is complete control
[24] = Rate 125 g/ha, Preemergence, scale of 0 to 10 where 0 is no effect and 10 is complete control
[25] = Rate 500 g/ha, Postemergence, scale 0 to 10, 0 no effect, 10 complete control
[26] = Rate 62 g/ha, Postemergence, scale of 0 to 10 where 0 is no effect and 10 is complete control
[27] = Rate 125 g/ha, Postemergence, scale 0 to 10
[28] = Rate 62 g/ha, headed Pre-emergence (flood test species), scale 0 to 10 (0 no effect, 10 complete control)
[29] = Rate 125 g/ha, Pre-emergence, flood test species, scale 0 to 10 where 0 is no effect and 10 is complete control
[30] = Rate 250 g/ha, Pre-emergence, flood-test species, scale 0 to 10, 0 is no effect, 10 is complete control
[31] = Rate 500 g/ha, Pre-emergence, flood test species, scale 0 to 10 (0 no effect, 10 complete control)

CC(C)N(C(=O)n1oc(=O)n(CCC2OCCCO2)c1=O)c1ccc(F)cc1 [Compound 255]
Giant foxtail plant response rating [1, 21]: 8
Giant foxtail plant response rating [1, 22]: 10
Plant response rating, Giant foxtail [1, 23]: 10
Giant foxtail plant response rating [1, 24]: 9
Plant response rating (0 to 10; 0 is no effect, 10 is complete control), Giant foxtail ([1]; Rate 250 g/ha, Postemergence): 6
Giant foxtail plant response rating [1, 25]: 8
Plant response rating (0 to 10; 0 is no effect, 10 is complete control), Nutsedge ([2]; Rate 250 g/ha): 0
Nutsedge plant response rating ([2]; Rate 500 g/ha, scale 0 to 10, 0 no effect, 10 complete control): 6
Blackgrass plant response rating [3, 21]: 10
Blackgrass plant response rating [3, 22]: 10
Plant response rating, Blackgrass [3, 23]: 10
Blackgrass plant response rating [3, 26]: 0
Blackgrass plant response rating [3, 27]: 2
Blackgrass plant response rating [3, 24]: 10
Plant response rating (0 to 10; 0 is no effect, 10 is complete control), Blackgrass ([3]; Rate 250 g/ha, Postemergence): 7
Blackgrass plant response rating [3, 25]: 9
S. Flatsedge plant response rating [4, 28]: 0
S. Flatsedge plant response rating [4, 29]: 0
S. Flatsedge plant response rating [4, 30]: 0
S. Flatsedge plant response rating [4, 31]: 0
Velvetleaf plant response rating [5, 21]: 0
Velvetleaf plant response rating [5, 22]: 5
Plant response rating, Velvetleaf [5, 23]: 7
Velvetleaf plant response rating [5, 24]: 0
Velvetleaf plant response rating [5, 25]: 1
Ducksalad plant response rating [6, 28]: 0
Ducksalad plant response rating [6, 29]: 0
Ducksalad plant response rating [6, 30]: 0
Ducksalad plant response rating [6, 31]: 0
Corn plant response rating [7, 21]: 0
Corn plant response rating [7, 22]: 0
Plant response rating, Corn [7, 23]: 8
Corn plant response rating [7, 26]: 0
Corn plant response rating [7, 27]: 0
Corn plant response rating [7, 24]: 0
Plant response rating (0 to 10; 0 is no effect, 10 is complete control), Corn ([7]; Rate 250 g/ha, Postemergence): 0
Corn plant response rating [7, 25]: 6
Bedstraw plant response rating [8, 21]: 0
Bedstraw plant response rating [8, 22]: 0
Plant response rating, Bedstraw [8, 23]: 0
Bedstraw plant response rating [8, 26]: 0
Bedstraw plant response rating [8, 27]: 0
Bedstraw plant response rating [8, 24]: 0
Plant response rating (0 to 10; 0 is no effect, 10 is complete control), Bedstraw ([8]; Rate 250 g/ha, Postemergence): 2
Bedstraw plant response rating [8, 25]: 8
Sugarbeets plant response rating [9, 21]: 0
Sugarbeets plant response rating [9, 22]: 6
Plant response rating, Sugarbeets [9, 23]: 7
Sugarbeets plant response rating [9, 24]: 3
Sugarbeets plant response rating [9, 25]: 3
Rape plant response rating [10, 21]: 0
Rape plant response rating [10, 22]: 0
Plant response rating, Rape [10, 23]: 5
Rape plant response rating [10, 24]: 0
Plant response rating (0 to 10; 0 is no effect, 10 is complete control), Rape ([10]; Rate 250 g/ha, Postemergence): 3
Rape plant response rating [10, 25]: 3
B. signalgrass plant response rating [11, 21]: 0
B. signalgrass plant response rating [11, 22]: 3
Plant response rating, B. signalgrass [11, 23]: 9
B. signalgrass plant response rating [11, 26]: 0
B. signalgrass plant response rating ([11]; Rate 125 g/ha, Postemergence, scale 0 (no effect) to 10 (complete control)): 0
B. signalgrass plant response rating [11, 24]: 2
Plant response rating (0 to 10; 0 is no effect, 10 is complete control), B. signalgrass ([11]; Rate 250 g/ha, Postemergence): 2
B. signalgrass plant response rating [11, 25]: 8
Crabgrass plant response rating [12, 21]: 0
Crabgrass plant response rating [12, 22]: 7
Plant response rating, Crabgrass [12, 23]: 9
Crabgrass plant response rating [12, 24]: 3
Plant response rating (0 to 10; 0 is no effect, 10 is complete control), Crabgrass ([12]; Rate 250 g/ha, Postemergence): 2
Crabgrass plant response rating [12, 25]: 3
Barnyardgrass plant response rating [13, 28]: 0
Barnyardgrass plant response rating [13, 29]: 0
Barnyardgrass plant response rating [13, 30]: 0
Barnyardgrass plant response rating [13, 31]: 0
Wild oats plant response rating [14, 21]: 0
Wild oats plant response rating [14, 22]: 5
Plant response rating, Wild oats [14, 23]: 10
Wild oats plant response rating [14, 24]: 2
Wild oats plant response rating [14, 25]: 4
Soybean plant response rating [15, 21]: 0
Soybean plant response rating [15, 22]: 0
Plant response rating, Soybean [15, 23]: 0
Soybean plant response rating [15, 24]: 0
Soybean plant response rating [15, 25]: 6
Wheat plant response rating [16, 21]: 0
Wheat plant response rating [16, 22]: 4
Plant response rating, Wheat [16, 23]: 8
Wheat plant response rating [16, 24]: 0
Wheat plant response rating [16, 25]: 8
Cocklebur plant response rating [17, 21]: 0
Cocklebur plant response rating [17, 22]: 0
Plant response rating, Cocklebur [17, 23]: 0
Cocklebur plant response rating [17, 26]: 0
Cocklebur plant response rating [17, 27]: 0
Cocklebur plant response rating [17, 24]: 0
Plant response rating (0 to 10; 0 is no effect, 10 is complete control), Cocklebur ([17]; Rate 250 g/ha, Postemergence): 0
Cocklebur plant response rating [17, 25]: 2
Redroot pigweed plant response rating [18, 21]: 0
Redroot pigweed plant response rating [18, 22]: 5
Plant response rating, Redroot pigweed [18, 23]: 10
Redroot pigweed plant response rating [18, 24]: 2
Plant response rating (0 to 10; 0 is no effect, 10 is complete control), Redroot pigweed ([18]; Rate 250 g/ha, Postemergence): 2
Redroot pigweed plant response rating [18, 25]: 8
Rice plant response rating [19, 28]: 0
Rice plant response rating [19, 29]: 0
Rice plant response rating [19, 30]: 0
Rice plant response rating [19, 31]: 0
Morningglory plant response rating [20, 21]: 0
Morningglory plant response rating [20, 22]: 0
Plant response rating, Morningglory [20, 23]: 0
Morningglory plant response rating [20, 24]: 0
Plant response rating (0 to 10; 0 is no effect, 10 is complete control), Morningglory ([20]; Rate 250 g/ha, Postemergence): 8
Morningglory plant response rating [20, 25]: 8
